Test results from US12570752B2, “Combination therapy with an anti BCMA antibody and a gamma secretase inhibitor” (priority 2019, dated 2026).

Legend:
[1] = cited from earlier work
[2] = system: multiple myeloma cell line L363; assay: L363 cell viability, nirogacestat pre-treatment then belantamab mafodotin or controls; type: cell-based; conditions: nirogacestat pre-treatment 24 hours, then treatment for additional 72 hours
[3] = cited from earlier work; remark: listed apart in the source

Compound: CCC[C@H](N[C@H]1CCc2cc(F)cc(F)c2C1)C(=O)Nc1cn(C(C)(C)CNCC(C)(C)C)cn1 [nirogacestat, (S)-2-(((S)-6,8-difluoro-1,2,3,4-tetrahydronaphthalen-2-yl)amino)-N-(1-(2-methyl-1-(neopentylamino)propan-2-yl)-1H-imidazol-4-yl)pentanamide]
- time to pharmacodynamically active plasma levels ([1]; after treatment initiation): < 48 h
- exposure versus dose ([1]; between 20 and 330 mg BID): dose-proportional
- time to steady-state ([1]; repeated BID administration): ≤ 8 days
- effect on cell viability [2]: no effect
- incidence of dose-limiting diarrhea and elevated liver enzymes ([3]; compared with RO4929097 or MK-0752 (Messersmith, 2015)): does not appear to be as high
- safety profile versus other gamma-secretase inhibitors ([3]; in vivo): better safety profile
- incidence of secondary primary malignancies (SPM) or treatment-emergent infections ([3]; unlike e.g. semagacestat (Messersmith, 2015; Henley, 2014)): there does not seem to be an increased incidence

Compound: Belantamab
- effect on cell viability [2]: no effect
